Results from US20050065099A1, “Treatment of mitochondrial diseases” (priority 2003, published 2005).

How the values were obtained:
Male C57/BL6 mice = experiment: MPTP animal model (neurobehavioral outcome); format: in vivo; details: 30 mg/kg/day ip; for functional deficit produced by MPTP: days 1-3; for functional outcome versus vehicle treated animals: days 1 and 2, comparable to negative control group
Procedure: In vivo evaluation is carried out using mice that have been treated with 1-methyl-4-phenyl-1,2,3,6-tetrahydropyridine (MPTP), a neurotoxin. […] In a number of species, including humans, […] and rodents, MPTP produces an irreversible and severe parkinsonian syndrome which includes virtually all the clinical features of the disease.
Male C57/BL6 mice (Harlan, Ind.), weight 25-30 g, were used in all studies. MPTP-HCl (Sigma) was administered i.p. according to one of the following protocols. The maximum volume which was given per injection is 200 μL. In all studies, animals were euthanized with carbon dioxide and, brains were removed for subsequent determination of dopamine depletion where appropriate.
Animals received 25 mg/kg of MPTP once a day for 5 consecutive days. The end point was 2 days after the final dose.
Animals received 4×20 mg/kg of MPTP at 2 hour intervals. The end point was at either 7 or 14 days.
Animals received 2×40 mg/kg of MPTP with this repeated 16 hours later. The end point was at either 14 or 28 days.
Animals received 25 mg/kg of MPTP, given twice weekly for 5 weeks. The end point was either 1, 3 or 24 weeks after the final dose.
Compound efficacy was examined with the use of neurobehavioral models. These models allowed the determination of a given compound's ability to reverse the motor deficits seen with MPTP treatment.
All animals received pre-training for the individual model and a baseline reading was obtained one day prior to the commencement of MPTP treatment.
The open field test was carried out in a clear, acrylic open box 60 cm×60 cm. The base of the box was marked into a 5×5 grid of […] squares. Animals were individually placed in the box and allowed to roam free. The number of squares an animal crossed in a 90 second time period was recorded. In order to be scored, the animal must either have had all four limbs within a given square or, all four limbs must have left a given square.
A tactile stimulus (0.5×0.5 cm square of “sticky tape”) was applied to each side of the animal's face and the time taken to remove it is recorded. The following measurements were recorded: • a. Latency to contact left side tape • b. Latency to contact right side tape • c. Order of side contacted (left vs. right) • d. Latency to remove left side tape • e. Latency to remove right side tape Pole Test
A rough surfaced metal pole (diameter 8 mm, height 50 cm) protruding from a cage filled with animal bedding was used for this test. Animals were placed head upwards at the top of the pole. They were required to turn and descend face downwards and the time taken for this was recorded (latency to reach bedding). Timing was started when the individual animal gripped the top of the pole and was stopped when all four limbs contacted the bedding.
All test compounds were administered ip. The maximum volume which was given per injection was 200 μL. Compounds were dosed up to twice daily, two days prior and 7 days post MPTP treatment.
A baseline reading was taken for each animal one day prior to MPTP treatment. All subsequent readings were normalized to the individual animal's baseline. Values were expressed as a percent baseline.
Data was percent baseline and expressed as mean±std dev: […]
Compound and vehicle given for 9 days in total, 2 days prior to MPTP and 7 days after MPTP treatment. L-DOPA given 1 hour prior to the pole test, each day.

FRDA fibroblasts = experiment: FRDA fibroblast assay for protection from oxidative stress; format: cell-based; details: Homo sapiens, 24 h preincubation, 1 mM BSO, compared to untreated FRDA fibroblasts, read-out: EC50 for reduction of cell death in FRDA fibroblasts
Source text: A cellular assay using FRDA-patient derived fibroblasts (as described by Jauslin, M L et al, Human Molecular Genetics 11; 3055-3063 (2002)); is used to determine the cell protecting effect of the test compounds by analyzing survival of dermal fibroblasts taken from FRDA patients and unaffected normal donors under conditions of partial GSH depletion. Exposure of FRDA fibroblasts to BSO (L-buthionine (S,R)-sulfoximine) under conditions of restricted selenium causes depletion of cellular glutathione (GSH) and severe plasma membrane damage leading to cell death. Preincubation with the test compounds before the addition of BSO is used to determine if they can protect FRDA cells from BSO-mediated cell death.
Primary fibroblasts were derived from donors with a molecular diagnosis of FRDA and control donors with no mitochondrial disease. Lines F2, C2 and C3 were obtained from Coriell Cell Repositories (Camden, N.J., USA; catalog #'s GM04078, GM 08402 and GM08399, respectively). All cell types were diagnosed at the molecular level for intronic GAA triplet repeat length in the trataxin gene using a PCR-based method, according to methods known in the art. […] The cells were seeded in microtiter plates at a density of 4000 cells per 100 μl in growth medium consisting of 25% (v/v) M199 EBS and 64% (v/v) MEM EBS without phenol red (Bioconcept, Allschwil, Switzerland) supplemented with 10% (v/v) fetal calf serum (PAA Laboratories, Linz, Austria), 100 U/ml penicillin, 100 μg/ml streptomycin (PAA Laboratories, Linz, Austria), 10 μg/ml insulin (Sigma, Buchs, Switzerland), 10 μg/ml EGF (Sigma, Buchs, Switzerland), 10 μg/ml bFGF (PreproTech, Rocky Hill, N.J., USA) and 2 mM glutamine (Sigma, Buchs, Switzerland). The cells were incubated in the presence of the various test compounds for 24 h before addition of 1 mM BSO (L-buthionine (S,R)-sulfoximine).
Cell viability was measured after the first signs of toxicity appeared in the BSO-treated controls (typically after 16-48 h). The cells were stained for 60 min at room temperature in PBS with 1.2 μm calceinAM and 4 μm ethidium homodimer (Live/Dead assay, Molecular Probes, Eugene, Oreg., USA). Fluorescence intensity was measured with a Gemini Spectramax XS spectrofluorimeter (Molecular Devices, Sunnyvale, Calif., USA) using excitation and emission wavelengths of 485 and 525 nm, respectively.

[1] = system: dopaminergic neuronal cell line; experiment: High glutamate-induced oxidative stress assay (HGOS); format: cell-based; details: Mus musculus; 30 mM glutamate, 16 hrs, Cell Tracker Green; read-out: EC50 for protection against HGOS cell injury and cell death
Source text: Protection against redox stress can be further evaluated in cell culture using high glutamate induced oxidative stress (HGOS) in mouse dopaminergic cell lines. The cytotoxic effect of glutamate is not due to excitotoxicity, as this cell line is devoid of inotropic glutamate receptors. Rather, the glutamate-induced toxicity of dopaminergic cells is associated with an inhibition of cystine transport which subsequently leads to depletion of intracellular glutathione (GSH) levels (Murphy T. H., et al. Neuron 2, 1547-1558, 1989), activation of neuronal 12-lipoxygenase (Li, Y. et al., Neuron 19,453-463, 1997), increased ROS production (Tan S. et al., J. Cell Biol. 141, 1423-1432, 1998) and elevated intracellular Ca^2+ (Li, Y. et al., see supra). Some molecules were measured for their ability to protect such cells against glutamate-induced stress and the assay is detailed in Examples.
This procedure was used to induce high glutamate-induced oxidative stress (HGOS) in a dopaminergic neuronal cell line. Using this assay the potency and efficacy of test articles against HGOS neuronal cell injury and cell death was established in a high throughput manner.
The cells were seeded into 96-well plates at a density of 2000 per well and left to grow for 72 hours in a 33° C. incubator with 5% CO2 in air atmosphere. The passage number of the cells for each assay experiment were no later than p11 in order to minimize experimental variation.
All compounds were dissolved in DMEM-No Glu containing 1 mM glucose, 30 mM glutamate and 1× Pen/Strep. DMEM-No Glu with 1 mM glucose and 1×P/S was used as the negative control, DMEM-No Glucose with 1 mM glucose, […] was used as a positive control and 100 μM Glutathione was added to the positive control as a standard. All of the procedures for this involving the making and dilution of compounds were performed using aseptic conditions and with minimal light.
The plates were removed from the incubator and examined under the microscope for morphological appearance and density. Using an aseptic technique and an 8-channel aspirator the media was carefully removed from the cells and replaced with 200 μl of 1×HBSS. This was done as quickly as possible to prevent the cells drying out. The plates were then placed in the humidified 37° C. incubators of the Biomek 2000 Side Loader. Four plates were washed at a time so as to minimize the time that the cells were sitting in 1×HBSS prior to addition of the compound test solution.
The Beckman Biomek workstations were used to load the compounds and controls from the mother plates onto the cell plates that were prewashed with HBSS under sterile conditions. The plates were incubated in the upper HTS incubator at 37° C. in 5% CO2 for exactly 16 hrs. The following day, using the Beckman Biomek workstations, the plates were removed from the incubator. Using Cell Tracker Addition, the compounds were removed from the plates, washed once with […] of pre-warmed 1×HBSS and then 100 μL of 5 μM Cell Tracker Green was added to each well. The plates were incubated at 37° C. for 30 min to allow the dye to enter the cell and be cleaved by the esterases. After washing the cells twice with prewarmed 1×HBSS, the plates were read with the 485 excitation; 538 emission filter pair on a Fluoroskan.

SMILES | functional deficit produced by MPTP (Male C57/BL6 mice) | functional outcome versus vehicle treated animals (Male C57/BL6 mice) | EC50 (FRDA fibroblasts) | EC50 [1]
Cc1cc(O)cc2c1OC(C)(CCC(=O)O)CC2 (centres unmarked) [3-(6-Hydroxy-2,8-dimethyl-chroman-2-yl)-propionic acid] | significantly reduced | significantly better | 0.01 to 6 µM | 
COC(=O)CSCc1c(O)c(C)c(C)c2c1CCC(C)(C)O2 [(6-Hydroxy-2,2,7,8-tetramethyl-chroman-5-ylmethylsulfanyl)-acetic acid methyl ester] | significantly reduced | significantly better |  | ≤ 5 µM
CC(C)=CCc1c(O)c(C)c(C)c2c1CCC(C)(CCC(=O)O)O2 (centres unmarked) [3-[6-Hydroxy-2,7,8-trimethyl-5-(3-methyl-but-2-enyl)-chroman-2-yl]-propionic acid] | significantly reduced | significantly better |  | 
Cc1c(O)cc2c(c1C)OC(C)(C)C=C2 [2,2,7,8-Tetramethyl-2H-chromen-6-ol] | significantly reduced | significantly better | 0.01 to 6 µM | 
COC(=O)CCC1(C)CCc2c(Br)c(O)c(C)c(C)c2O1 (centres unmarked) [3-(5-Bromo-6-hydroxy-2,7,8-trimethyl-chroman-2-yl)-propionic acid methyl ester] | significantly reduced | significantly better | 0.01 to 6 µM | ≤ 5 µM
CC(C)=CCc1c(O)c(C)c(C)c2c1CCC(C)(C)O2 [2,2,7,8-Tetramethyl-5-(3-methyl-but-2-enyl)-chroman-6-ol] | significantly reduced | significantly better |  | 
